Experimental data taken from patent US7087609B2, “3-(pyridinyl-piperazin-1-yl)-phenylethyl amides as potassium channel openers” (Bristol-Myers Squibb Company, priority 2002, dated 2006).

Molecular target: voltage-gated K+ channel KCNQ2 (Homo sapiens, UniProt O43526)
Assay: thallium flux assay to detect openers of KCNQ potassium channels
Type: cell-based
Details: thallium influx assay; 10 point concentration series, 1:3 dilutions; concentration yielding 50% of maximal response (opening)
From the text: A thallium flux assay was used to detect and characterize openers of KCNQ potassium channels. The thallium assay is generally described in International application WO 02/31508 published Apr. 18, 2002. More specifically, the thallium influx assay to detect compounds that block or open the voltage-gated K^+ channel KCNQ2 is described in Example IV of the published WO 02/31508 application.
For data analysis, the amplitude of the average of the negative controls was subtracted from all wells. The amplitudes of the test compounds were then compared to the value of four standard deviations of the negative control wells. The lowest concentration of a test compound sufficient to generate a signal amplitude greater than or equal to four standard deviations from the amplitude of the negative controls was defined as the minimal active concentration.
For generating EC50 values, compounds were serially diluted in 1:3 volume increments to produce a 10 point concentration series. EC50 values were calculated by fitting the resulting amplitudes to a single-site logistic equation. EC50 was defined as the concentration of test compound required to yield 50% of the maximal response. Maximal response (Maximal opening) was the largest signal amplitude above the negative control generated by any concentration of a test compound.

Chain of voltage-gated K+ channel KCNQ2 (O43526 whole entry): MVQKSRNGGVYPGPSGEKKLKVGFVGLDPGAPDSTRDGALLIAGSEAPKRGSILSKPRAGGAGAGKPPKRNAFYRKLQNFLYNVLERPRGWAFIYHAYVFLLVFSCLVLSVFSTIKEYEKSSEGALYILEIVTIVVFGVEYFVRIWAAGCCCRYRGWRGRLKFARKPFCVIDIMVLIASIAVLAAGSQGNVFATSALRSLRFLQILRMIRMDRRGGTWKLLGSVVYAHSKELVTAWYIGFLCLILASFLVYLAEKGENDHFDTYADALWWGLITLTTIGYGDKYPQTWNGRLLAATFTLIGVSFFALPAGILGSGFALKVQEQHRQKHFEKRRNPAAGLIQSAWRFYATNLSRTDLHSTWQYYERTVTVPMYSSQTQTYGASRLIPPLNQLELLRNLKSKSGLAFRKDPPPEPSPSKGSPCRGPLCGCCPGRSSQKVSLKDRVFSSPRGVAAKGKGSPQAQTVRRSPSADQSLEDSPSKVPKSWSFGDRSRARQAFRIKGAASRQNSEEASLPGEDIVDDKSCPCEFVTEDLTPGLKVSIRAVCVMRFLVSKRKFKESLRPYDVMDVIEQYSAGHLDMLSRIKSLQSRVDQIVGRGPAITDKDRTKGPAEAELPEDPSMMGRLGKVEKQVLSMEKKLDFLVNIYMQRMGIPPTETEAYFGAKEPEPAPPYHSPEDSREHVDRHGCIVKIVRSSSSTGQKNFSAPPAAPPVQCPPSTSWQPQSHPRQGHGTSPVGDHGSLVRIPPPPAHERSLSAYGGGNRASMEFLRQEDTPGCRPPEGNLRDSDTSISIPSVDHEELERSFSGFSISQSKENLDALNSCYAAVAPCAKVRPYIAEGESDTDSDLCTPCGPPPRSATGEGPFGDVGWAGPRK

EC50 | SMILES
4 nM | C[C@H](NC(=O)/C=C/c1cc(F)ccc1F)c1cccc(N2CCN(c3ccccn3)CC2)c1 [Example 12, (S)-3-(2,5-Difluoro-phenyl)-N-{1-[3-(4-pyridin-2-yl-piperazin-1-yl)-phenyl]-ethyl}-acrylamide]
1 nM | C[C@H](NC(=O)/C=C/c1ccc(F)cc1F)c1cccc(N2CCN(c3ccccn3)CC2)c1 [Example 11, (S)-3-(2,4-Difluoro-phenyl)-N-{1-[3-(4-pyridin-2-yl-piperazin-1-yl)-phenyl]-ethyl}-acrylamide]
1 nM | C[C@H](NC(=O)/C=C/c1ccc(Cl)cc1F)c1cccc(N2CCN(c3ccccn3)CC2)c1 [Example 17, (S)-3-(4-Chloro-2-fluoro-phenyl)-N-{1-[3-(4-pyridin-2-yl-piperazin-1-yl)-phenyl]-ethyl}-acrylamide]
280 nM | C[C@H](NC(=O)/C=C/c1c(F)cccc1F)c1cccc(N2CCN(c3ccccn3)CC2)c1 [Example 13, (S)-3-(2,6-Difluoro-phenyl)-N-{1-[3-(4-pyridin-2-yl-piperazin-1-yl)-phenyl]-ethyl}-acrylamide]
1 nM | C[C@H](NC(=O)/C=C/c1cccc(F)c1F)c1cccc(N2CCN(c3ccccn3)CC2)c1 [Example 10, (S)-3-(2,3-Difluoro-phenyl)-N-{1-[3-(4-pyridin-2-yl-piperazin-1-yl)-phenyl]-ethyl}-acrylamide]
476 nM | C[C@H](NC(=O)/C=C/c1ccccc1F)c1cccc(N2CCN(c3ccccn3)CC2)c1 [Example 3, (S)-3-(2-Fluoro-phenyl)-N-{1-[3-(4-pyridin-2-yl-piperazin-1-yl)-phenyl]-ethyl}-acrylamide]
